Assay results published in US20040204463A1, “N-aryl-2-oxazolidinone-5-carboxamides and their derivatives” (priority 2003, published 2004).
Values after ≈ are worked out from the molar mass of the structure shown. Where two headings read alike, the source gives them in different places.

Tests used:
SPNE 9912 = assay: In vitro MIC by standard agar dilution method, SPNE 9912; format: cell-based; conditions: read-out: SPNE 9912 MIC (Minimum Inhibitory Concentration)
Description: (§1) The oxazolidinone antibacterial agents of this invention have useful activity against a variety of organisms. The in vitro activity of compounds of this invention can be assessed by standard testing procedures such as the determination of minimum inhibitory concentration (MIC) by agar dilution as described in “Approved Standard. Methods for Dilution Antimicrobial Susceptibility Tests for Bacteria That Grow Aerobically”, 3rd. ed., published 1993 by the National Committee for Clinical Laboratory Standards, Villanova, Pa., USA.
(§2) The in vitro MICs of test compounds were determined by a standard agar dilution method. A stock drug solution of each analog was prepared in the preferred solvent, usually DMSO: H2O (1:3). Serial 2-fold dilutions of each sample are made using 1.0 ml aliquots of sterile distilled water. To each 1.0 ml aliquot of drug was added 9 ml of molten Mueller Hinton agar medium. The drug-supplemented agar was mixed, poured into 15×100 mm petri dishes, and allowed to solidify and dry prior to inoculation.
(§3) Vials of each of the test organisms are maintained frozen in the vapor phase of a liquid nitrogen freezer. Test cultures are grown overnight at 35° C. on the medium appropriate for the organism. Colonies are harvested with a sterile swab, and cell suspensions are prepared in Trypticase Soy broth (TSB) to equal the turbidity of a 0.5 McFarland standard. A 1:20 dilution of each suspension was made in TSB. The plates containing the drug supplemented agar are inoculated with a 0.001 ml drop of the cell suspension using a Steers replicator, yielding approximately 10^4 to 10^5 cells per spot. The plates are incubated overnight at 35° C.
(§4) Following incubation the Minimum Inhibitory Concentration (MIC μg/ml), the lowest concentration of drug that inhibits visible growth of the organism, was read and recorded.

HINF 30063 = assay: In vitro MIC by standard agar dilution method, HINF 30063; format: cell-based, H. influenzae; conditions: Haemophilus influenzae, read-out: HINF 30063 MIC (Minimum Inhibitory Concentration)
Description: as §1, §2, §3, §4

SAUR 9213 = assay: In vitro MIC by standard agar dilution method, SAUR 9213; format: cell-based, S. aureus; conditions: Staphylococcus aureus, read-out: SAUR 9213 MIC (Minimum Inhibitory Concentration)
Description: as §1, §2, §3, §4

[1] = agar dilution, Mueller Hinton agar, incubated overnight at 35° C., lowest concentration that inhibits visible growth

Row | MIC (SPNE 9912; [1]) [µg/mL] | MIC (HINF 30063; [1]) [µg/mL] | MIC (SAUR 9213; [1]) [µg/mL] | Compound | MIC (SPNE 9912) [µg/mL] | MIC (HINF 30063) [µg/mL] | MIC (SAUR 9213) [µg/mL]
1 |  |  |  | C#CCCCC(=O)N1CCN(c2ccc(N3C[C@H](CNC(C)=O)OC3=O)cc2F)CC1 [Compound 4, N-({(5S)-3-[3-Fluoro-4-(4-hex-5-ynoylpiperazin-1-yl)phenyl]-2-oxo-1,3-oxazolidin-5-yl}methyl)acetamide] | 1 (≈ 2.32 µM) | 64 (≈ 149 µM) | 4 (≈ 9.29 µM)
2 | 1 (≈ 1.87 µM) | 16 (≈ 29.9 µM) | 2 (≈ 3.73 µM) | CC(=O)NC[C@H]1CN(c2ccc(N3CCN(C(=O)CCCC#Cc4cccc(CN)c4)CC3)c(F)c2)C(=O)O1 [Compound 6, N-({(5S)-3-[4-(4-{6-[3-(aminomethyl)phenyl]hex-5-ynoyl}piperazin-1-yl)-3-fluorophen-yl]-2-oxo-1,3-oxazolidin-5-yl}methyl)acetamide] |  |  | 
3 | 1 (≈ 1.91 µM) | > 64 | 4 (≈ 7.65 µM) | CC(=O)NC[C@H]1CN(c2ccc(N3CCN(C(=O)CCCC#Cc4ccc(O)cc4)CC3)c(F)c2)C(=O)O1 [Compound 7, N-{[(5S)-3-(3-Fluoro-4-{4-[6-(4-hydroxyphenyl)hex-5-ynoyl]piperazin-1-yl}phenyl)-2-oxo-1,3-oxazolidin-5-yl]methyl}acetamide] |  |  | 
4 | < 0.5 | > 32 | 4 (≈ 9.6 µM) | C#CCCC(=O)N1CCN(c2ccc(N3C[C@H](CNC(C)=O)OC3=O)cc2F)CC1 [Compound 8, N-[((5S)-3-{3-fluoro-4-[4-(4-pentynoyl)-1-piperazinyl]phenyl}-2-oxo-1,3-oxazolidin-5-yl)methyl]acetamide] |  |  | 
5 | 2 (≈ 4.44 µM) | 16 (≈ 35.5 µM) | 4 (≈ 8.88 µM) | CC(=O)NC[C@H]1CN(c2ccc(N3CCN(CC#Cc4ccccc4)CC3)c(F)c2)C(=O)O1 [Compound 9, N-[((5S)-3-{3-fluoro-4-[4-(3-phenylprop-2-ynyl)piperazin-1-yl]phenyl}-2-oxo-1,3-oxazolidin-5-yl)methyl]acetamide] |  |  | 
6 | 2 (≈ 3.5 µM) | 32 (≈ 56 µM) | 4 (≈ 7 µM) | CC(=O)NC[C@H]1CN(c2cc(F)c(N3CCN(C(=O)CCCC#Cc4ccc(CN)cc4)CC3)c(F)c2F)C(=O)O1 [Compound 10, N-({(5S)-3-[4-(4-{6-[4-(aminomethyl)phenyl]hex-5-ynoyl}piperazin-1-yl)-2,3,5-trifluorophenyl]-2-oxo-1,3-oxazolidin-5-yl}methyl)acetamide] |  |  | 
7 | 2 (≈ 3.5 µM) | 16 (≈ 28 µM) | 4 (≈ 7 µM) | CC(=O)NC[C@H]1CN(c2cc(F)c(N3CCN(C(=O)CCCC#Cc4cccc(CN)c4)CC3)c(F)c2F)C(=O)O1 [Compound 11, N-({(5S)-3-[4-(4-{6-[3-(aminomethyl)phenyl]hex-5-ynoyl}piperazin-1-yl)-2,3,5-trifluorophenyl]-2-oxo-1,3-oxazolidin-5-yl}methyl)acetamide] |  |  | 
8 | 2 | > 64 | 16 | CC(=O)NC[C@H]1CN(c2ccc(N3CCN(C(=O)CCCC#Cc4ccc(/C(N)=N/O)cc4)CC3)c(F)c2)C(=O)O1.Cl [Compound 12, N-[((5S)-3-{4-[4-(6-{4-[(Z)-amino(hydroxyimino)methyl]-phenyl}hex-5-ynoyl)piperazin-1-yl]-3-fluorophenyl}-2-oxo-1,3-oxazolidin-5-yl)methyl]-acetamide hydrochloride] |  |  | 
9 |  |  |  | CC(=O)NC[C@H]1CN(c2ccc(N3CCN(C(=O)CCC#Cc4ccc(C[C@H](N)C(=O)O)cc4)CC3)c(F)c2)C(=O)O1 [Compound 13, 4-{5-[4-(4-{(5S)-5-[(acetylamino)methyl]-2-oxo-1,3-oxazolidin-3-yl}-2-fluorophenyl)piperazin-1-yl]-5-oxopent-1-ynyl}-L-phenylalanine] | 64 (≈ 110 µM) | > 64 | > 64
10 | 2 (≈ 3.76 µM) | > 64 | 8 (≈ 15 µM) | CC(=O)NC[C@H]1CN(c2ccc(N3CCN(C(=O)CCCC#Cc4cccc(C#N)c4)CC3)c(F)c2)C(=O)O1 [Compound 14, N-{[(5S)-3-(4-{4-[6-(3-cyanophenyl)hex-5-ynoyl]piperazin-1-yl}-3-fluorophenyl)-2-oxo-1,3-oxazolidin-5-yl]methyl}acetamide] |  |  | 
